# Measured values from the supplement of paper PMC10307832.
# Columns and labels:
# Experiment in all cases: relative viability (nuclei count vs DMSO), 5 days (fraction); higher = more cells survive
# XMD8-85 + OSI-027 = compound: CN1CCN(CC1)C2=CC(=C(C=C2)NC3=NC=C4C(=N3)N(C5=CC=CC=C5C(=O)N4C)C)OC [XMD8-85] + COc1cccc2cc(-c3nc([C@H]4CC[C@H](C(=O)O)CC4)n4ncnc(N)c34)[nH]c12 [OSI-027] (partner 0.5 µM)
# Outline: (§1)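 One day after seeding in 1536-well plates, lung cancer cell lines were dosed by pin tool. Dosing was either single-drug or a fixed anchor-drug dose plus five library-drug doses (not always all listed) in √10 steps. After 5 days, nuclei were stained in one fix-and-stain step and counted on 4× images, and relative viability is the nuclei count of treated wells over that of vehicle wells, given as the median of duplicate plates.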
# 4EGI-1 + OSI-027 = compound: O=C(O)C(Cc1ccccc1[N+](=O)[O-])=NNc1nc(-c2ccc(Cl)c(Cl)c2)cs1 (mixture of isomers) [4EGI-1] + COc1cccc2cc(-c3nc([C@H]4CC[C@H](C(=O)O)CC4)n4ncnc(N)c34)[nH]c12 [OSI-027] (partner 0.5 µM)
# Outline: as §1
# XMD8-85 + Decitabine = compound: CN1CCN(CC1)C2=CC(=C(C=C2)NC3=NC=C4C(=N3)N(C5=CC=CC=C5C(=O)N4C)C)OC [XMD8-85] + Nc1ncn([C@H]2C[C@H](O)[C@@H](CO)O2)c(=O)n1 [Decitabine] (partner 2 µM)
# Outline: as §1
# XMD8-85 + Crizotinib = compound: CN1CCN(CC1)C2=CC(=C(C=C2)NC3=NC=C4C(=N3)N(C5=CC=CC=C5C(=O)N4C)C)OC [XMD8-85] + C[C@@H](Oc1cc(-c2cnn(C3CCNCC3)c2)cnc1N)c1c(Cl)ccc(F)c1Cl [Crizotinib] (partner 1 µM)
# Outline: as §1
Cell Line,relative viability (XMD8-85 + OSI-027; first compound 0.08 µM),relative viability (XMD8-85 + OSI-027; first compound 0.253 µM),relative viability (XMD8-85 + OSI-027; first compound 0.8 µM),relative viability (XMD8-85 + OSI-027; first compound 2.53 µM),relative viability (XMD8-85 + OSI-027; first compound 8 µM),relative viability (4EGI-1 + OSI-027; first compound 0.5 µM),relative viability (4EGI-1 + OSI-027; first compound 1.581 µM),relative viability (4EGI-1 + OSI-027; first compound 5 µM),relative viability (4EGI-1 + OSI-027; first compound 15.81 µM),relative viability (4EGI-1 + OSI-027; first compound 50 µM),relative viability (XMD8-85 + Decitabine; first compound 0.08 µM),relative viability (XMD8-85 + Decitabine; first compound 0.253 µM),relative viability (XMD8-85 + Decitabine; first compound 0.8 µM),relative viability (XMD8-85 + Decitabine; first compound 2.53 µM),relative viability (XMD8-85 + Decitabine; first compound 8 µM),relative viability (XMD8-85 + Crizotinib; first compound 0.08 µM),relative viability (XMD8-85 + Crizotinib; first compound 0.253 µM),relative viability (XMD8-85 + Crizotinib; first compound 0.8 µM),relative viability (XMD8-85 + Crizotinib; first compound 2.53 µM),relative viability (XMD8-85 + Crizotinib; first compound 8 µM)
201T,0.88,0.824,0.398,0.367,0.493,0.791,0.622,0.824,0.704,0.656,0.867,0.865,0.883,0.82,0.689,1.02,1.04,1.03,1.03,0.949
A549,–,–,–,–,–,–,–,–,–,–,0.296,0.252,0.237,0.369,0.384,0.704,0.711,0.872,0.855,0.426
A-427,0.466,0.573,0.482,0.52,0.337,0.604,0.386,0.534,0.44,0.152,0.601,0.596,0.546,0.573,0.539,0.897,0.934,0.922,1.05,0.56
ABC-1,0.473,0.296,0.546,0.526,0.41,0.642,0.357,0.455,0.313,0.218,1.42,1.09,1.49,1.11,0.745,1.3,0.882,1.41,0.994,0.49
BEN,0.439,0.344,0.274,0.264,0.307,0.328,0.281,0.324,0.317,0.26,0.761,0.671,0.757,0.66,0.483,0.744,0.865,–,0.608,0.447
CAL-12T,0.556,0.735,0.693,0.409,0.235,0.822,0.413,0.755,0.522,0.21,–,–,–,–,–,0.357,0.664,0.779,0.474,0.15
COR-L23,0.592,–,0.91,0.733,0.597,0.899,0.459,0.848,0.542,0.138,0.513,0.397,0.506,0.458,0.409,0.739,0.561,0.723,0.631,0.299
COR-L 105,0.6,–,0.589,0.512,0.324,0.937,0.572,0.718,0.434,0.535,–,0.731,0.7,0.537,0.466,–,0.807,0.793,0.455,0.255
Calu-6,–,–,–,–,–,–,–,–,–,–,–,–,–,–,–,0.689,0.607,0.894,–,0.396
ChaGo-K-1,0.555,0.532,0.599,0.605,0.422,0.595,0.526,0.558,0.483,0.381,0.553,0.521,0.551,0.525,0.45,1.08,1.15,1.44,0.887,–
EBC-1,–,–,–,–,–,–,–,–,–,–,–,–,–,–,–,0.197,0.189,0.184,0.186,0.114
EKVX,0.746,0.872,0.661,0.73,–,0.736,0.594,0.738,0.567,0.696,0.536,0.32,0.33,0.61,0.328,0.892,0.985,1.12,1,0.886
EMC-BAC-2,0.358,0.385,0.368,0.404,0.313,0.39,0.342,0.4,0.374,0.327,0.873,0.961,–,1.05,0.887,0.748,–,0.794,0.662,0.72
EPLC-272H,0.282,0.251,0.266,0.305,0.27,0.317,–,0.285,0.274,0.172,0.347,0.36,0.314,0.294,0.305,–,0.678,1.03,0.947,0.691
H3255,0.599,0.597,0.611,0.603,0.469,0.655,0.564,0.611,0.448,0.578,0.838,0.682,0.977,0.316,0.358,0.808,0.853,0.822,0.902,0.52
HARA,0.467,0.574,0.523,0.478,0.229,0.651,0.517,0.648,0.453,0.154,0.657,0.647,0.407,0.659,0.416,1.21,0.885,1.3,0.94,0.417
HCC-15,0.615,0.689,0.669,–,0.541,0.692,–,0.734,0.557,0.19,0.537,0.642,0.782,0.749,0.517,0.852,0.859,0.855,0.806,0.592
HCC-44,0.51,0.55,0.46,0.456,0.3,0.483,–,0.41,0.404,0.175,0.976,0.979,0.922,0.973,0.887,0.795,0.769,0.821,0.802,0.301

Cell Line,relative viability (XMD8-85 + OSI-027; first compound 0.08 µM),relative viability (XMD8-85 + OSI-027; first compound 0.253 µM),relative viability (XMD8-85 + OSI-027; first compound 0.8 µM),relative viability (XMD8-85 + OSI-027; first compound 2.53 µM),relative viability (XMD8-85 + OSI-027; first compound 8 µM),relative viability (4EGI-1 + OSI-027; first compound 0.5 µM),relative viability (4EGI-1 + OSI-027; first compound 1.581 µM),relative viability (4EGI-1 + OSI-027; first compound 5 µM),relative viability (4EGI-1 + OSI-027; first compound 15.81 µM),relative viability (4EGI-1 + OSI-027; first compound 50 µM),relative viability (XMD8-85 + Decitabine; first compound 0.08 µM),relative viability (XMD8-85 + Decitabine; first compound 0.253 µM),relative viability (XMD8-85 + Decitabine; first compound 0.8 µM),relative viability (XMD8-85 + Decitabine; first compound 2.53 µM),relative viability (XMD8-85 + Decitabine; first compound 8 µM),relative viability (XMD8-85 + Crizotinib; first compound 0.08 µM),relative viability (XMD8-85 + Crizotinib; first compound 0.253 µM),relative viability (XMD8-85 + Crizotinib; first compound 0.8 µM),relative viability (XMD8-85 + Crizotinib; first compound 2.53 µM),relative viability (XMD8-85 + Crizotinib; first compound 8 µM)
HCC-78,0.367,0.334,0.391,0.35,0.286,0.356,–,0.38,0.34,0.362,0.672,0.694,0.736,0.671,0.675,0.363,0.364,0.304,0.37,0.295
HCC-366,0.932,1.15,1.08,0.917,0.794,0.922,0.742,1.13,0.669,0.277,0.342,0.302,0.375,0.511,0.393,0.388,–,0.586,0.481,0.136
HCC-827,0.831,0.789,0.714,0.939,1,0.888,0.629,0.796,–,0.719,0.389,0.356,0.316,0.374,0.369,–,0.919,0.942,0.944,0.856
HOP-62,0.806,0.867,0.842,0.845,0.436,0.878,0.585,0.839,0.746,0.483,0.235,0.199,0.186,0.228,0.236,1.04,1.07,0.951,0.835,0.724
IA-LM,–,–,–,–,–,–,–,–,–,–,–,–,–,–,–,0.678,0.889,0.91,–,0.127
LC-2-ad,0.745,0.859,0.794,0.779,0.613,0.873,–,0.894,0.386,0.234,0.734,0.774,0.811,0.772,0.514,0.442,0.446,0.462,0.444,0.303
NCI-H522,0.659,0.747,0.66,0.828,0.596,0.69,0.645,0.693,0.689,0.63,0.739,0.669,0.615,0.782,0.635,–,–,–,–,–
NCI-H1299,–,–,–,–,–,–,–,–,–,–,–,–,–,–,–,0.983,0.962,1.03,0.928,0.601
NCI-H1395,0.754,0.64,0.667,0.664,0.489,0.647,0.43,0.686,0.567,0.355,0.609,0.762,0.722,0.701,0.716,–,–,–,–,–
NCI-H1563,0.819,–,0.755,0.715,0.789,0.788,0.752,0.85,0.736,0.665,–,–,–,–,–,0.931,0.812,0.72,0.841,0.757
NCI-H1623,0.44,0.395,0.349,0.413,0.368,0.457,0.418,0.475,0.324,0.382,–,–,–,–,–,–,–,–,–,–
NCI-H1648,0.248,0.268,–,–,0.228,0.254,0.26,0.252,0.302,0.213,0.478,0.447,0.635,0.638,0.561,–,–,–,–,–
NCI-H1703,–,–,–,–,–,–,–,–,–,–,–,–,–,–,–,–,0.586,0.649,0.47,0.315
NCI-H1793,0.317,0.259,0.243,0.286,0.276,0.331,0.287,0.355,0.247,0.134,–,0.473,0.482,0.575,0.583,–,–,–,–,–
NCI-H2228,0.544,0.879,0.686,0.6,0.336,0.674,0.54,0.594,0.607,0.13,–,–,–,–,–,0.454,0.442,0.521,0.528,0.26
NCI-H2342,0.606,0.605,–,0.594,0.641,0.596,0.644,0.62,0.625,0.517,0.7,0.709,0.677,0.777,0.867,–,–,–,–,–
SW 900,0.583,0.623,0.581,0.553,0.304,0.72,–,0.586,0.46,0.207,0.505,0.45,0.406,0.458,0.506,–,–,–,–,–
